Values after ≈ are worked out from the molar mass of the structure shown. One block for each compound: values may come before it.
Assays:
Experiment in all cases: ≥ marks a high value that may be exact or a test limit, other limits are often not marked, values filed in µg/mL are converted to µM
[1] = test system: Bacillus subtilis ATCC 6633
[2] = test system: Escherichia coli ATCC 25922
[3] = test system: Klebsiella pneumoniae ATCC 10031
[4] = test system: Micrococcus luteus ATCC 10240
[5] = test system: Pseudomonas aeruginosa ATCC 27853
[6] = test system: Salmonella enterica subsp. enterica serovar Typhimurium ATCC 14028
[7] = test system: Shigella dysenteriae ATCC 9752
[8] = test system: Staphylococcus aureus ATCC 6538P
[9] = test system: Staphylococcus epidermidis ATCC 12228
[10] = test system: Bacillus anthracis Sterne 34F2
[11] = test system: Bacillus subtilis var. niger ATCC 9372
[12] = test system: Escherichia coli K91BK
[13] = test system: Bacillus subtilis 168
[14] = test system: Candida albicans F7-39/IDE99
[15] = test system: Escherichia coli B
[16] = test system: Micrococcus luteus CCM 144
[17] = test system: Pseudomonas aeruginosa
[18] = test system: Staphylococcus aureus
[19] = test system: Candida albicans NCYC 1467
[20] = test system: Enterococcus faecalis NCTC 12697
[21] = test system: Escherichia coli NCTC 10418
[22] = test system: Klebsiella pneumoniae ATCC 43816
[23] = test system: Staphylococcus aureus NCTC 10788
[24] = test system: Staphylococcus aureus NCTC 12493
[25] = test system: Burkholderia thailandensis
[26] = test system: Escherichia coli W160-37
[27] = test system: Staphylococcus aureus ATCC 8530
[28] = test system: Escherichia coli BW25113
[29] = test system: Staphylococcus aureus FDA 209P

Structure (SMILES): CC[C@H](C)[C@H](NC(=O)CNC(C)=O)C(=O)NCC(=O)N[C@@H](CCCCN)C(=O)N[C@@H](Cc1cnc[nH]1)C(=O)N[C@H](C(=O)NCC(=O)N[C@@H](CCCCN)C(=O)N[C@@H](C)C(=O)N[C@@H](CC(C)C)C(=O)N[C@@H](CCCCN)C(=O)NCC(=O)N[C@@H](CC(C)C)C(=O)N[C@@H](CCCCN)C(=O)NCC(=O)N[C@@H](CC(C)C)C(=O)N[C@@H](CC(C)C)C(=O)N[C@@H](CCCCN)C(=O)NCC(=O)N[C@@H](CC(C)C)C(=O)NCC(=O)N[C@@H](CCC(=O)O)C(=O)N[C@@H](CO)C(N)=O)C(C)C [GIGKHVGKALKGLKGLLKGLGES]
MIC [10]: ≥ 100 µM
MIC [11]: ≥ 100 µM
MIC [12]: ≥ 100 µM

Structure (SMILES): CC[C@H](C)[C@H](NC(=O)[C@H](CCCCN)NC(=O)[C@H](CCCN=C(N)N)NC(=O)CNC(=O)[C@H](CC(C)C)NC(=O)[C@H](CCCN=C(N)N)NC(=O)[C@H](CCCN=C(N)N)NC(=O)[C@H](CC(C)C)NC(=O)CNC(=O)[C@H](CCCN=C(N)N)NC(C)=O)C(=O)N[C@@H](C)C(=O)N[C@@H](Cc1cnc[nH]1)C(=O)NCC(=O)N[C@H](C(=O)N[C@@H](CCCCN)C(=O)N[C@@H](CCCCN)C(=O)NCC(=O)NCC(=O)N1CCC[C@H]1C(=O)N[C@H](C(=O)N[C@H](C(=O)N[C@@H](CC(C)C)C(=O)N[C@@H](CCCN=C(N)N)C(=O)N[C@H](C(=O)N[C@H](C(=O)N[C@@H](CCCN=C(N)N)C(=O)N[C@H](C(=O)N[C@@H](C)C(=O)NCC(N)=O)[C@@H](C)CC)[C@@H](C)CC)[C@@H](C)CC)C(C)C)[C@@H](C)O)C(C)C [RGLRRLGRKIAHGVKKGGPTVLRIIRIAG]
MIC [10]: ≥ 70.2 µM
MIC [11]: 7.87 µM (≈ 25.1 µg/mL)
MIC [25]: ≥ 100 µM
MIC [12]: ≥ 100 µM

Structure (SMILES): CC[C@H](C)[C@H](NC(=O)[C@H](CCCCN)NC(=O)[C@H](CCCN=C(N)N)NC(=O)[C@H](CCCCN)NC(=O)[C@H](CC(C)C)NC(=O)[C@H](CCCN=C(N)N)NC(=O)[C@H](CCCN=C(N)N)NC(=O)[C@H](CC(C)C)NC(=O)[C@H](CCCCN)NC(=O)[C@H](CCCN=C(N)N)NC(C)=O)C(=O)N[C@@H](C)C(=O)N[C@@H](Cc1cnc[nH]1)C(=O)N[C@@H](CCCCN)C(=O)N[C@H](C(=O)N[C@@H](CCCCN)C(=O)N[C@@H](CCCCN)C(=O)N[C@@H](Cc1ccc(O)cc1)C(N)=O)C(C)C [RKLRRLKRKIAHKVKKY]
MIC [10]: ≥ 100 µM
MIC [11]: ≥ 57.4 µM
MIC [25]: ≥ 100 µM
MIC [12]: ≥ 100 µM

Structure (SMILES): CC[C@H](C)[C@H](NC(=O)[C@H](C)NC(=O)CNC(=O)[C@H](Cc1ccccc1)NC(=O)[C@H](CC(C)C)NC(=O)[C@H](CC(C)C)NC(=O)[C@@H]1CCCN1C(=O)[C@H](CC(C)C)NC(=O)[C@@H](N)Cc1ccccc1)C(=O)N[C@@H](CO)C(=O)N[C@@H](Cc1cnc[nH]1)C(=O)N[C@@H](CC(C)C)C(=O)N[C@@H](CC(C)C)C(N)=O [FLPLLFGAISHLL]
MIC [1]: ≥ 44.4 µM
MIC [29]: 30.7 µM (≈ 44.3 µg/mL)

Other lines, results leading:

MIC [1]: 1.16 µM (≈ 1.6 µg/mL)
MIC [2]: 36.2 µM (≈ 50 µg/mL)
MIC [3]: ≥ 36.2 µM
MIC [4]: 2.25 µM (≈ 3.1 µg/mL)
MIC [5]: > 145 µM
MIC [6]: > 145 µM
MIC [7]: 9.05 µM (≈ 12.5 µg/mL)
MIC [8]: 2.25 µM (≈ 3.1 µg/mL)
MIC [9]: 2.25 µM (≈ 3.1 µg/mL)
Structure (SMILES): CC(C)C[C@H](NC(=O)[C@H](CC(C)C)NC(=O)[C@H](CCCCN)NC(=O)[C@H](CC(C)C)NC(=O)[C@H](CC(C)C)NC(=O)[C@H](Cc1c[nH]c2ccccc12)NC(=O)[C@H](CCCCN)NC(=O)[C@H](CC(C)C)NC(=O)[C@H](CC(C)C)NC(=O)[C@H](CCCCN)NC(=O)[C@@H](N)CC(C)C)C(N)=O [LKLLKWLLKLL]

MIC [13]: 4.5 µM (≈ 6.32 µg/mL)
MIC [14]: 10.8 µM (≈ 15.2 µg/mL)
MIC [15]: 12.5 µM (≈ 17.6 µg/mL)
MIC [16]: 2.5 µM (≈ 3.51 µg/mL)
MIC [17]: > 100 µM
MIC [18]: 36.7 µM (≈ 51.6 µg/mL)
Structure (SMILES): CC[C@H](C)[C@H](NC(=O)CNC(=O)[C@H](C)NC(=O)[C@H](Cc1c[nH]c2ccccc12)NC(=O)[C@H](CC(C)C)NC(=O)[C@@H](N)CC(N)=O)C(=O)N[C@@H](CC(C)C)C(=O)N[C@@H](CCCCN)C(=O)N[C@@H](Cc1cnc[nH]1)C(=O)N[C@H](C(=O)N[C@H](C(=O)N[C@@H](CCCCN)C(N)=O)[C@@H](C)CC)[C@@H](C)CC [NLWAGILKHIIK]

MIC [19]: ≥ 132 µM
MIC [20]: ≥ 264 µM
MIC [21]: ≥ 264 µM
MIC [22]: ≥ 512 µM
MIC [5]: > 512 µM
MIC [23]: ≥ 33 µM
MIC [24]: ≥ 33 µM
Structure (SMILES): CC[C@H](C)[C@H](NC(=O)[C@H](C)NC(=O)[C@H](C)NC(=O)[C@@H]1CCCN1C(=O)[C@@H](NC(=O)[C@H](CC(C)C)NC(=O)[C@H](CO)NC(=O)[C@H](CC(C)C)NC(=O)[C@@H](N)Cc1ccccc1)[C@@H](C)CC)C(=O)N[C@@H](CO)C(=O)N[C@@H](C)C(=O)N[C@H](C(=O)N[C@@H](CO)C(=O)N[C@@H](C)C(=O)N[C@@H](CC(C)C)C(=O)N[C@@H](C)C(=O)N[C@@H](CC(N)=O)C(=O)N[C@@H](Cc1cnc[nH]1)C(=O)N[C@@H](Cc1ccccc1)C(N)=O)C(C)C [FLSLIPAAISAVSALANHF]

MIC [26]: 4.5 µM (≈ 10.3 µg/mL)
MIC [27]: 11 µM (≈ 25.1 µg/mL)
Structure (SMILES): CC[C@H](C)[C@H](NC(=O)[C@H](CC(C)C)NC(=O)[C@H](CCC(N)=O)NC(=O)[C@H](CCCCN)NC(C)=O)C(=O)N[C@@H](CCCN=C(N)N)C(=O)N[C@@H](Cc1ccccc1)C(=O)N[C@@H](CC(C)C)C(=O)N[C@@H](CCCCN)C(=O)N[C@@H](CCCN=C(N)N)C(=O)N[C@@H](CC(C)C)C(=O)N[C@@H](CC(=O)O)C(=O)N[C@@H](CCCN=C(N)N)C(=O)N[C@@H](CC(N)=O)C(=O)N[C@@H](CC(C)C)C(=O)N[C@@H](Cc1c[nH]c2ccccc12)C(=O)NCC(=O)N[C@@H](CC(C)C)C(=O)N[C@@H](C)C(N)=O [KQLIRFLKRLDRNLWGLA]

MIC [19]: ≥ 32 µM
MIC [20]: ≥ 512 µM
MIC [21]: 16 µM (≈ 28.3 µg/mL)
MIC [22]: ≥ 128 µM
MIC [5]: 256 µM (≈ 452 µg/mL)
MIC [23]: 8 µM (≈ 14.1 µg/mL)
MIC [24]: 16 µM (≈ 28.3 µg/mL)
Structure (SMILES): CC[C@H](C)[C@@H]1NC(=O)[C@H](C)NC(=O)[C@@H](NC(=O)[C@H](Cc2ccccc2)NC(=O)[C@@H](NC(=O)[C@H](CCCCN)NC(=O)[C@@H]2CCCN2C(=O)[C@H](CC(C)C)NC(=O)[C@H](Cc2ccccc2)NC(=O)[C@H](CCCCN)NC(=O)[C@@H](N)CCCCN)[C@@H](C)CC)CSSC[C@@H](C(=O)O)NC(=O)[C@H](CCCCN)NC(=O)[C@H](CCCCN)NC(=O)[C@H]([C@@H](C)O)NC1=O [KKFLPKIFCAITKKC]

MIC [28]: 8 µM (≈ 18.6 µg/mL)
Structure (SMILES): CC[C@H](C)[C@H](NC(=O)[C@@H]1CCCN1C(=O)[C@H](CCCN=C(N)N)NC(=O)[C@H](CCCN=C(N)N)NC(=O)[C@H](Cc1c[nH]c2ccccc12)NC(=O)[C@@H](N)CCCN=C(N)N)C(=O)N[C@@H](CCCN=C(N)N)C(=O)N[C@@H](CCCN=C(N)N)C(=O)N1CCC[C@H]1C(=O)N1CCC[C@H]1C(=O)N[C@H](C(=O)N[C@@H](CCCN=C(N)N)C(=O)N1CCC[C@H]1C(=O)N1CCC[C@H]1C(=O)N[C@@H](Cc1ccccc1)C(=O)N[C@@H](Cc1ccc(O)cc1)C(=O)N[C@@H](CCCN=C(N)N)C(=O)O)[C@@H](C)CC [RWRRPIRRPPIRPPFYR]

— DBAASP
